A value given as a limit tells only on which side of the number the result lay.

T1 sequence (O75417 1-899): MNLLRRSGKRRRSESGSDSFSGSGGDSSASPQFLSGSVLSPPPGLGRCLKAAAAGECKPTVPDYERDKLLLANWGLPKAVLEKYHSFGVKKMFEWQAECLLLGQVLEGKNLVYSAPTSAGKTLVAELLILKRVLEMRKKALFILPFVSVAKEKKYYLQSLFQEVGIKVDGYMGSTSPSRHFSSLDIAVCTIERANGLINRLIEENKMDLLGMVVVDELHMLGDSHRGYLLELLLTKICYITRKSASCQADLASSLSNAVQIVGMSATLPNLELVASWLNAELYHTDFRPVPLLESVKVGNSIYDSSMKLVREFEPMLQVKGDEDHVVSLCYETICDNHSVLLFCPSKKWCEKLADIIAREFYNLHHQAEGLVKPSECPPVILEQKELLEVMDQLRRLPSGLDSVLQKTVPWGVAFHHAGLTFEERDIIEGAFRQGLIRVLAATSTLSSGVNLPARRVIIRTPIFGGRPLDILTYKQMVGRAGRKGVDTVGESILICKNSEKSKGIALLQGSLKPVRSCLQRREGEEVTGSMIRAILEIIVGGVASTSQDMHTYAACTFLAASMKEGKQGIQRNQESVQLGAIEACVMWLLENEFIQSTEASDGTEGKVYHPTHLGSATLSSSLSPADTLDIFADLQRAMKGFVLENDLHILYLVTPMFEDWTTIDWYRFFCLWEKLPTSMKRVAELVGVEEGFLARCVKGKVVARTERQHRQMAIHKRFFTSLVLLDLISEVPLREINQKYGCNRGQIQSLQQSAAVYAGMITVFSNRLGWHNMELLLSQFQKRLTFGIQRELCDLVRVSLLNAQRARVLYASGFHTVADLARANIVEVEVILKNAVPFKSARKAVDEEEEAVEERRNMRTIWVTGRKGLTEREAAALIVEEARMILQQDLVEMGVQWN

This assay concerns the target T1, Pol theta (1-899) (Homo sapiens, UniProt O75417).
T1 construct: Pol theta (1-899) (5 nM) in assay buffer
Put plainly: Pol theta ATPase activity, NADH oxidation-coupled enzymatic assay (ATPase NADH coupling: Standard Screening: hPolQ). It counts as biochemical. Conditions: Table 4; Pol theta (1-899) 5 nM, ATP, dT50 ssDNA. In a few lines:
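NADH-coupled ATPase readout: 5 nM Pol theta (1-899) preincubated 15 min with 10-point compound series in Tris pH 7.80, KCl, MgCl2, DTT, BSA, Tween, glycerol, then 100 μM ATP, 300 nM 50-mer poly-dT ssDNA, NADH, PEP, LDH and PK added (stock levels). A340 followed 60 min; slopes fit four-parameter for IC50.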
Take `COc1cnc(Cl)cc1-c1cc(C)ncc1C(=O)Nc1nnc(O[C@H]2CCOC2)s1` [Example 22, (S)-2′-chloro-5′-methoxy-6-methyl-N-(5-((tetrahydrofuran-3-yl)oxy)-1,3,4-thiadiazol-2-yl)-(4,4′-bipyridine)-3-carboxamide]: the IC50 was at most 200 nM. Next, `COc1cnc(Cl)cc1-c1cc(C)ncc1C(=O)Nc1nnc(O[C@@H]2CCOC2)s1` [Example 23, (R)-2′-chloro-5′-methoxy-6-methyl-N-(5-((tetrahydrofuran-3-yl)oxy)-1,3,4-thiadiazol-2-yl)-(4,4′-bipyridine)-3-carboxamide]: at most 200 nM. For `COc1cnc(Cl)cc1-c1cc(C)ncc1C(=O)Nc1nnc(OC2(C)COC2)s1` [Example 24, 2′-chloro-5′-methoxy-6-methyl-N-(5-((3-methyloxetan-3-yl)oxy)-1,3,4-thiadiazol-2-yl)-(4,4′-bipyridine)-3-carboxamide] the value was at most 200 nM; for `COc1cnc(Cl)cc1-c1cc(C)ncc1C(=O)Nc1nnc(OC2CCS(=O)(=O)CC2)s1` [Example 25, 2′-chloro-N-(5-((1,1-dioxidotetrahydro-2H-thiopyran-4-yl)oxy)-1,3,4-thiadiazol-2-yl)-5′-methoxy-6-methyl-(4,4′-bipyridine)-3-carboxamide], at most 200 nM; for `CCOc1nnc(NC(=O)c2cnc(C)cc2-c2cc(Cl)ncc2OC)s1` [Example 28, 2′-chloro-N-(5-ethoxy-1,3,4-thiadiazol-2-yl)-5′-methoxy-6-methyl-(4,4′-bipyridine)-3-carboxamide], at most 200 nM.

As to `COc1cnc(Cl)cc1-c1cc(C)ncc1C(=O)Nc1nnc(OCC(F)(F)F)s1` [Example 29, 2′-chloro-5′-methoxy-6-methyl-N-(5-(2,2,2-trifluoroethoxy)-1,3,4-thiadiazol-2-yl)-(4,4′-bipyridine)-3-carboxamide], the IC50 was at most 200 nM.

For the compound `COc1nnc(NC(=O)c2cnc(C)cc2-c2cc(C)ccc2OC)s1` [Example 30, N-(5-methoxy-1,3,4-thiadiazol-2-yl)-4-(2-methoxy-5-methylphenyl)-6-methylnicotinamide], the IC50 is at most 200 nM. The compound `COc1cnc(Cl)cc1-c1cc(C)ncc1C(=O)Nc1nnc(O)s1` [Example 31, 2′-chloro-N-(5-hydroxy-1,3,4-thiadiazol-2-yl)-5′-methoxy-6-methyl-(4,4′-bipyridine)-3-carboxamide] gave a concentration for half-maximal inhibition (IC50) of 200 to 500 nM. For `COc1nnc(NC(=O)c2cnc(C)cc2-c2c(F)cccc2OC(F)F)s1` [Example 32, 4-(2-(difluoromethoxy)-6-fluorophenyl)-N-(5-methoxy-1,3,4-thiadiazol-2-yl)-6-methylnicotinamide], the IC50 was at most 200 nM. Compound `COc1nnc(NC(=O)c2cnc(C)cc2-c2cc(Cl)ccc2OC(F)F)s1` [Example 33, 4-(5-chloro-2-(difluoromethoxy)phenyl)-N-(5-methoxy-1,3,4-thiadiazol-2-yl)-6-methylnicotinamide] registered an IC50 of at most 200 nM.

In the case of `COc1nnc(NC(=O)c2cnc(C)cc2-c2c(Cl)cccc2Cl)s1` [Example 34, 4-(2,6-dichlorophenyl)-N-(5-methoxy-1,3,4-thiadiazol-2-yl)-6-methylnicotinamide], the IC50 fell in the range of 500 to 1000 nM. For `COc1nnc(NC(=O)c2cnc(C)cc2-c2c(Cl)cccc2OC)s1` [Example 35, 4-(2-chloro-6-methoxyphenyl)-N-(5-methoxy-1,3,4-thiadiazol-2-yl)-6-methylnicotinamide], the IC50 lay within 200 to 500 nM. Next, `COc1nnc(NC(=O)c2cnc(C)cc2-c2ccccc2OC(F)F)s1` [Example 36, 4-(2-(difluoromethoxy)phenyl)-N-(5-methoxy-1,3,4-thiadiazol-2-yl)-6-methylnicotinamide]: at most 200 nM. On to `CCCOc1nnc(NC(=O)c2cnc(C)cc2-c2cc(Cl)ncc2OC)s1` [Example 37, 2′-chloro-5′-methoxy-6-methyl-N-(5-propoxy-1,3,4-thiadiazol-2-yl)-(4,4′-bipyridine)-3-carboxamide], for which the IC50 was at most 200 nM. For `COc1nnc(NC(=O)c2cnc(C)cc2-c2c(F)cccc2Cl)s1` [Example 38, 4-(2-chloro-6-fluorophenyl)-N-(5-methoxy-1,3,4-thiadiazol-2-yl)-6-methylnicotinamide], the IC50 was at most 200 nM. For the compound `COc1nnc(NC(=O)c2cnc(C)cc2-c2cc(Cl)ncc2C)s1` [Example 39, 2′-chloro-N-(5-methoxy-1,3,4-thiadiazol-2-yl)-5′,6-dimethyl-(4,4′-bipyridine)-3-carboxamide], the half-inhibitory concentration (IC50) is at most 200 nM. Compound `COc1nnc(NC(=O)c2cnc(C)cc2-c2c(C)n[nH]c2C)s1` [Example 40, 4-(3,5-dimethyl-1H-pyrazol-4-yl)-N-(5-methoxy-1,3,4-thiadiazol-2-yl)-6-methylnicotinamide] came in with an IC50 of 1000 to 10000 nM.

Turning to `COc1nnc(NC(=O)c2cnc(C)cc2-c2cc(C)ncc2Cl)s1` [Example 41, 5′-chloro-N-(5-methoxy-1,3,4-thiadiazol-2-yl)-2′,6-dimethyl-(4,4′-bipyridine)-3-carboxamide], the IC50 is at most 200 nM. In the case of `CCOc1cnc(Cl)cc1-c1cc(C)ncc1C(=O)Nc1nnc(OC)s1` [Example 42, 2′-chloro-5′-ethoxy-N-(5-methoxy-1,3,4-thiadiazol-2-yl)-6-methyl-(4,4′-bipyridine)-3-carboxamide], the IC50 was in the range of 200 to 500 nM. Next, `COc1nnc(NC(=O)c2cnc(C)cc2-c2cc(C)nnc2OC)s1` [Example 43, N-(5-methoxy-1,3,4-thiadiazol-2-yl)-4-(3-methoxy-6-methylpyridazin-4-yl)-6-methylnicotinamide]: 200 to 500 nM; `CCc1cc(-c2cc(C)ncc2C(=O)Nc2nnc(OC)s2)c(OC)cn1` [Example 44, 2′-ethyl-5′-methoxy-N-(5-methoxy-1,3,4-thiadiazol-2-yl)-6-methyl-(4,4′-bipyridine)-3-carboxamide]: at most 200 nM. Next, `COc1cnc(Cl)cc1-c1cc(C)ncc1C(=O)Nc1nnc(O[C@H]2CC[C@H](O)C2)s1` [Example 45, 2′-chloro-N-(5-(((1s,3s)-3-hydroxycyclopentyl)oxy)-1,3,4-thiadiazol-2-yl)-5′-methoxy-6-methyl-(4,4′-bipyridine)-3-carboxamide]: at most 200 nM; `COc1cnc(Cl)cc1-c1cc(C)ncc1C(=O)Nc1nnc(O[C@H]2CC[C@@H](O)C2)s1` [Example 46, 2′-chloro-N-(5-(((1s,3r)-3-hydroxycyclopentyl)oxy)-1,3,4-thiadiazol-2-yl)-5′-methoxy-6-methyl-(4,4′-bipyridine)-3-carboxamide]: at most 200 nM.

The compound `COc1nnc(NC(=O)c2cnc(C)cc2-c2c(OC)cnc(Cl)c2F)s1` [Example 47, 2′-chloro-3′-fluoro-5′-methoxy-N-(5-methoxy-1,3,4-thiadiazol-2-yl)-6-methyl-(4,4′-bipyridine)-3-carboxamide] yielded an IC50 of at most 200 nM. `COc1nnc(NC(=O)c2cnc(C)cc2-c2cc(Cl)ncc2OC(F)F)s1` [Example 48, 2′-chloro-5′-(difluoromethoxy)-N-(5-methoxy-1,3,4-thiadiazol-2-yl)-6-methyl-(4,4′-bipyridine)-3-carboxamide] showed an IC50 of at most 200 nM.

`CCc1cnc(Cl)cc1-c1cc(C)ncc1C(=O)Nc1nnc(OC)s1` [Example 49, 2′-chloro-5′-ethyl-N-(5-methoxy-1,3,4-thiadiazol-2-yl)-6-methyl-(4,4′-bipyridine)-3-carboxamide] registered an IC50 of at most 200 nM. `COc1nnc(NC(=O)c2cn3ccnc3cc2-c2c(F)cccc2OC)s1` [Example 50, 7-(2-fluoro-6-methoxyphenyl)-N-(5-methoxy-1,3,4-thiadiazol-2-yl)imidazo(1,2-a)pyridine-6-carboxamide] returned an IC50 of 1000 to 10000 nM. Turning to `COc1nnc(NC(=O)c2cnc(C)cc2-c2cc(C3CC3)ncc2OC)s1` [Example 51, 2′-cyclopropyl-5′-methoxy-N-(5-methoxy-1,3,4-thiadiazol-2-yl)-6-methyl-(4,4′-bipyridine)-3-carboxamide], the IC50 was at most 200 nM.

Regarding `COc1nnc(NC(=O)c2cnc(C)cc2-c2cc(C)ncc2OC(F)F)s1` [Example 52, 5′-(difluoromethoxy)-N-(5-methoxy-1,3,4-thiadiazol-2-yl)-2′,6-dimethyl-(4,4′-bipyridine)-3-carboxamide], the IC50 was at most 200 nM. `CCOc1ccc(Cl)cc1-c1cc(C)ncc1C(=O)Nc1nnc(OC)s1` [Example 53, 4-(5-chloro-2-ethoxyphenyl)-N-(5-methoxy-1,3,4-thiadiazol-2-yl)-6-methylnicotinamide] returned an IC50 of 200 to 500 nM. As for `COc1nnc(NC(=O)c2cnc(C)cc2-c2ccccc2OC)s1` [Example 54, N-(5-methoxy-1,3,4-thiadiazol-2-yl)-4-(2-methoxyphenyl)-6-methylnicotinamide], the IC50 lay within 500 to 1000 nM. Next, `COc1nnc(NC(=O)c2cnc(C)cc2-c2c(Cl)cccc2OC(F)F)s1` [Example 55, 4-(2-chloro-6-(difluoromethoxy)phenyl)-N-(5-methoxy-1,3,4-thiadiazol-2-yl)-6-methylnicotinamide]: 200 to 500 nM. For the compound `COc1nnc(NC(=O)c2cnc(C)cc2-c2cc(C)ncc2C)s1` [Example 56, N-(5-methoxy-1,3,4-thiadiazol-2-yl)-2′,5′,6-trimethyl-(4,4′-bipyridine)-3-carboxamide], the IC50 was 200 to 500 nM.

For the compound `COc1nnc(NC(=O)c2cnc(C)cc2-c2cc(C(F)(F)F)ncc2OC)s1` [Example 57, 5′-methoxy-N-(5-methoxy-1,3,4-thiadiazol-2-yl)-6-methyl-2′-(trifluoromethyl)-(4,4′-bipyridine)-3-carboxamide], the half-maximal inhibitory concentration (IC50) is at most 200 nM.

The compound `COc1cnc(Cl)c(F)c1-c1cc(C)ncc1C(=O)Nc1nnc(OC2COC2)s1` [Example 60, 2′-chloro-3′-fluoro-5′-methoxy-6-methyl-N-(5-(oxetan-3-yloxy)-1,3,4-thiadiazol-2-yl)-(4,4′-bipyridine)-3-carboxamide] came in with an IC50 of at most 200 nM.

As a reminder, the IC50 is the point on the concentration scale where inhibition reaches its midpoint.

Values taken from patent US20240287080A1 (IDEAYA Biosciences Inc., priority 2021, published 2024).
